Experimental data taken from ChEMBL document CHEMBL6178005, “Novel Nonpeptide as Oxytocin Receptor Agonist” (ACS Med Chem Lett, 2025).

Biological target: Vasopressin V1a receptor (Homo sapiens, UniProt P37288)
Experiment: Antagonist activity at vasopressin V1A receptor (unknown origin) assessed as calcium level
Assay type: functional

Vasopressin V1a receptor, sequence (P37288 whole entry): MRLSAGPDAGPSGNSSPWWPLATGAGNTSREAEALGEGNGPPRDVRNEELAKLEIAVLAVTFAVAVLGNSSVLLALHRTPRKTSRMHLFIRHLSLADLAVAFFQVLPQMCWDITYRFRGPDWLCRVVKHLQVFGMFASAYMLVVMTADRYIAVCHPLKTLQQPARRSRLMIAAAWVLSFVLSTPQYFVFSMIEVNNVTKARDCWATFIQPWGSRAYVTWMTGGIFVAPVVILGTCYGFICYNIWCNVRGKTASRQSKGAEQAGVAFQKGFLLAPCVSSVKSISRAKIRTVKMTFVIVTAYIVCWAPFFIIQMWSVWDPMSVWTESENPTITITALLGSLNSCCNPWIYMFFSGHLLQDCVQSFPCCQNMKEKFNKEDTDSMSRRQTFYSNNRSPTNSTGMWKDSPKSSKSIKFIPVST

IC50	SMILES
2430 nM	Cc1cc(C(=O)N2Cc3cnn(C)c3Nc3ccccc32)ccc1CNC(=O)N1C[C@H](OCc2cc(O)cc(O)c2)C[C@H]1C(=S)N(C)C
585 nM	Cc1cc(C(=O)N2Cc3cnn(C)c3Nc3ccccc32)ccc1CNC(=O)N1C[C@H](OCCO)C[C@H]1C(=S)N(C)C
